Assay results from patent publication US5169634A, “Pharmaceutical dosage form for the medication of fish” (priority 1988, dated 1992).

Experiments:
Assay type in all cases: cell-based
Vibrio salmonicidia = test: Minimal inhibitory concentration, Vibrio salmonicidia
[1] = test system: Vibrio anguillarum, serotype 1; test: Minimal inhibitory concentration, Vibrio anguillarum, serotype 1
[2] = test system: Yersinia ruckeri, serotype 3; test: Minimal inhibitory concentration, Yersinia ruckeri, serotype 3
[3] = test system: Yersinia ruckeri, serotype 2; test: Minimal inhibitory concentration, Yersinia ruckeri, serotype 2

Structure (SMILES) | Minimal Inhibitory Concentration (Vibrio salmonicidia) | Minimal Inhibitory Concentration [1] | Minimal Inhibitory Concentration [2] | Minimal Inhibitory Concentration [3]
CC1CCc2cc(F)cc3c(=O)c(C(=O)O)cn1c23 (centres unmarked) [Flumequine, flumequine] | 0.035 | 0.035 | 0.25 | 1.2
CCn1cc(C(=O)O)c(=O)c2cc3c(cc21)OCO3 [Oxolinic Acid, oxolinic acid] | 0.07 | 0.035 | 0.25 | 1.0
